The assay has as its system differentiated human keratinocytes. Kind of assay: in vitro screening of desquamating activity (release of corneocytes, cellular detachment index, flow cytometer). To be noted: for % of activity with respect to the control composed of an identical culture in the absence of compound (cellular detachment index): compounds at 5 × 10^−5 M, difference between T60 and T0 (60 minutes after addition), corneocytes counted by flow cytometer. Type of assay: cell-based. How it is done:
This test of in vitro screening of an agent which is active with regard to desquamation was carried out on differentiated human keratinocytes. The principle of the test is based on the fact that desquamation induces the release of corneocytes. The desquamating power of the test product increases as the number of corneocytes released increases.
The protocol of the test was as follows: starting with biopsies of human skin, the keratinocytes obtained by separation from the epidermis were dissociated by enzymatic action with trypsin and were cultured at a concentration of 2×10^5 cell/ml. The growth and differentiation of the keratinocytes was obtained by culturing for 10 to 20 days in a specific medium. The activity of the test product was then evaluated after removal of the culture medium. To do this, two samples were taken at T0 and T60, that namely, before the addition of the product and 60 minutes after this addition. The samples thus taken were analyzed with a flow cytometer in order to count the population of corneocytes. The flow cytometer made it possible to distinguish the populations of corneocytes and of keratinocytes by treatment with acridine orange, which is specific for cellular DNA.
The cellular detachment index was determined by the difference between T60 and T0. The same measurement was carried out for a control not comprising test product, because the experiment inevitably produced the release of corneocytes, even in the absence of active principles.
The test was carried out with 10-hydroxy-2-decenoic acid at a concentration of 5×10^−5M.
In general terms: A flow cytometer gives signals particle by particle.

Consider `O=C(O)C=CCCCCCCCO` [10-Hydroxy-2-decenoic acid], for which the “% of activity with respect to the control composed of an identical culture in the absence of compound (cellular detachment index)” value came out at 110%. Further, the “activity with regard to cellular detachment” value (5 × 10^−5 M, differentiated human keratinocytes) was “high”. As for `CCCCCCCC(=O)c1ccc(O)c(C(=O)O)c1` [Reference, 2-Hydroxy-5-octanoylbenzoic acid, reference compound], the “% of activity with respect to the control composed of an identical culture in the absence of compound (cellular detachment index)” value stood at 92%.
